The values that follow come from patent US20040077636A1, “Restricting reinstatement of drug use” (priority 2000, published 2004).

Entries after “also recorded” stand apart in the source; their conditions may differ.

The subject of one series is heroin-addicted rats. The following applies: Euro. J. Neurosci. 12, 292-302, 2000; cited from earlier work.
The conditions of series [1]: pre-treatment; literature reports; cited from earlier work.
Series [2] relates to Male Wistar rats. Briefly: Footshock stress-induced reinstatement of alcohol seeking. The series is classed as in vivo. The following applies: for reinstatement of alcohol seeking (responses on the active lever after footshock): vs saline, p<0.05. The protocol:
Animals: Male Wistar rats (Charles River, Montreal; weighing about 150-200 g. at the start of the experiments) were individually housed. Food and water were freely available in the home cages for 23 h/day. Food was not available during the 30 to 60 min daily session (see below). The temperature was maintained at 21±1° C. and the lights were on from 7 a.m. to 7 p.m. Rats were initially trained to consume alcohol in a limited access procedure ([…], 1987). The rats were given access to an alcohol solution and water in modified Richter tubes for 30 min/day in drinking cages. Alcohol solutions were provided in escalating concentrations: 3% w/v for the first 5 days 6% for the next 8 days and 12% for the last 10-12 days. Rats that consumed less than 0.4 g/kg per session during the last 10-12 days were excluded. All procedures were done in accordance with the guidelines of the Canadian Council on Animals Care and the 'principle of laboratories animal care' (NIH publication No. 85-23, revised 1985), and were approved by the local Animal Care Committee. Apparatus: The alcohol self-administration system was built locally. Each operant chamber was equipped with two levers, symmetrically centered on the side panel. Responding on one lever (the active lever) activated the infusion pump (Razel Sci. Stamford, Conn., USA). […] During the infusion, a stimulus light above the active lever was turned on for 6 s. […] The grid floor of the operant cambers was connected to electric shock generators (Med Associates, Georgia, Vt., USA). Training and extinction of alcohol self-administration: Operant self-administration of alcohol was initiated on a fixed ration-1 schedule of reinforcement (FR-1, each lever press is reinforced) for 60 min per day for 5-7 days per week. Responding on the FR-1 schedule was maintained for 10-14 sessions. The requirement for alcohol delivery was then increased to FR-2 for five sessions. Subsequently, the schedule requirement was increased to an FR-3 schedule for 8-12 days until the rats obtained three days of stable drug taking (variability of less than 20% of the mean). During extinction sessions, presses on the previously active lever had no programmable consequences. […] Test for Reinstatement: Tests were conducted under extinction conditions. Intermittent footshock (0.8 mA; 0.5 s ON; a mean OFF period of 40 s; a range of 10-70 s) was administered for a period of 10 min just prior to the test sessions. Footshock was delivered through a scrambler to the stainless steel grid floor of the operant chambers. […] When the animals achieved extinction criterion, the effect of pre-treatment with lofexidine on footshock stress-induced reinstatement of alcohol seeking was determined as described above. […]

The conditions of series [3]: in vivo; cited from earlier work.
For series [4], the system named is Male Wistar rats. Briefly: Operant alcohol self-administration. The class given is in vivo. The conditions noted are these: average of two consecutive sessions, vs saline. As for the experimental part:
Animals: Male Wistar rats (Charles River, Montreal; weighing about 150-200 g. at the start of the experiments) were individually housed. Food and water were freely available in the home cages for 23 h/day. Food was not available during the 30 to 60 min daily session (see below). The temperature was maintained at 21±1° C. and the lights were on from 7 a.m. to 7 p.m. Rats were initially trained to consume alcohol in a limited access procedure (Linseman, 1987). The rats were given access to an alcohol solution and water in modified Richter tubes for 30 min/day in drinking cages. Alcohol solutions were provided in escalating concentrations: 3% w/v for the first 5 days 6% for the next 8 days and 12% for the last 10-12 days. Rats that consumed less than 0.4 g/kg per session during the last 10-12 days were excluded. All procedures were done in accordance with the guidelines of the Canadian Council on Animals Care and the ‘principle of laboratories animal care’ (NIH publication No. 85-23, revised 1985), and were approved by the local Animal Care Committee. […]
Analysis of variance with or without repeated measures were employed to analyse the data. […] In the first experiment, the average amounts of alcohol self-administered over a period of two days were used to quantify the effects of lofexidine treatment on alcohol self-administration. […]

Series [5] concerns Male Wistar rats. Nature of the series: Extinction of alcohol self-administration behaviour. The series is classed as in vivo. The following applies: for responding on the active lever, second day of extinction: among the three groups. As for the experimental part: Animals: Male Wistar rats (Charles River, Montreal; weighing about 150-200 g. at the start of the experiments) were individually housed. Food and water were freely available in the home cages for 23 h/day. Food was not available during the 30 to 60 min daily session (see below). The temperature was maintained at 21±1° C. and the lights were on from 7 a.m. to 7 p.m. Rats were initially trained to consume alcohol in a limited access procedure (Linseman, 1987). The rats were given access to an alcohol solution and water in modified Richter tubes for 30 min/day in drinking cages. Alcohol solutions were provided in escalating concentrations: 3% w/v for the first 5 days 6% for the next 8 days and 12% for the last 10-12 days. Rats that consumed less than 0.4 g/kg per session during the last 10-12 days were excluded. All procedures were done in accordance with the guidelines of the Canadian Council on Animals Care and the ‘principle of laboratories animal care’ (NIH publication No. 85-23, revised 1985), and were approved by the local Animal Care Committee.
Apparatus: The alcohol self-administration system was built locally. Each operant chamber was equipped with two levers, symmetrically centered on the side panel. Responding on one lever (the active lever) activated the infusion pump (Razel Sci. Stamford, Conn., USA). […] During the infusion, a stimulus light above the active lever was turned on for 6 s. […] The grid floor of the operant cambers was connected to electric shock generators (Med Associates, Georgia, Vt., USA).
Training and extinction of alcohol self-administration: Operant self-administration of alcohol was initiated on a fixed ration-1 schedule of reinforcement (FR-1, each lever press is reinforced) for 60 min per day for 5-7 days per week. Responding on the FR-1 schedule was maintained for 10-14 sessions. The requirement for alcohol delivery was then increased to FR-2 for five sessions. Subsequently, the schedule requirement was increased to an FR-3 schedule for 8-12 days until the rats obtained three days of stable drug taking (variability of less than 20% of the mean). […]

Series [6] can be described thus: Footshock stress-induced reinstatement of cocaine seeking. The series is classed as in vivo. The conditions noted are these: 0.150 mg/kg or 0.2 mg/kg.
The test system of a further series is NE release. The following applies: doses employed in the present study; cited from earlier work.
For series [7] the following is noted: humans; cited from earlier work.
Series [8] deals with imidazoline-type 1 receptors. The conditions noted are these: cited from earlier work.

On to `Clc1cccc(Cl)c1N=C1NCCN1` [clonidine], for which the “foot-shock-induced reinstatement of heroin-seeking” value in the series on heroin-addicted rats is given as “effective”. Also, in series [1], the alcohol consumption result is “reduction in alcohol consumption”.

On to `N=C(N)NC(=O)Cc1c(Cl)cccc1Cl` [guanfacine], for which, in series [1], the alcohol consumption entry is “reduction in alcohol consumption”.

`Cc1csc(Cl)c1NC1=NCCN1` [tiamedine]: in series [1], the alcohol consumption entry was “reduction in alcohol consumption”.

Regarding `CC(Oc1c(Cl)cccc1Cl)C1=NCCN1` (stereo not drawn) [lofexidine, Lofexidine], the “reinstatement of alcohol seeking (responses on the active lever after footshock)” value in the series on Male Wistar rats [2] (0.05 mg/kg IP 1 h before 10 min intermittent footshock), with Male Wistar rats [2] (0.1 mg/kg IP 1 h before 10 min intermittent footshock) and in the series on Male Wistar rats [2] (0.2 mg/kg IP 1 h before 10 min intermittent footshock) was “significantly suppressed” each time. For the same compound, the “reinstatement of alcohol seeking” value with Male Wistar rats [2] (doses ranging from 0.05 to 0.2 mg/kg, intermittent footshock stress) is “completely suppressed”. In addition, the hypotensive effect result in series [3] is listed as “minimal hypotensive effect”. In addition, the “alcohol self-administration (amount of alcohol self-administered during 1-hour session)” value with Male Wistar rats [4] (0.05 mg/kg IP 1 h before session) is listed as “no significant differences; also recorded: did not reach statistical significance”; with Male Wistar rats [4] (0.1 mg/kg IP 1 h before session, p<0.05), “significantly lower; also recorded: significantly suppresses”. Also, the “responding on the active lever, second day of extinction” value with Male Wistar rats [5] (0.05 mg/kg IP daily) and with Male Wistar rats [5] (0.1 mg/kg IP daily) was “no significant differences” throughout. The “responding on the active lever, first day of extinction” value with Male Wistar rats [5] (0.1 mg/kg IP daily 1 h before session, vs saline and lower dose group) was “significantly lower; also recorded: significant decrease”. Further, the “footshock stress-induced reinstatement of cocaine seeking” value in series [6] is listed as “attenuation; also recorded: suppressed”. The “stress induced NE release in the pre-frontal cortex and amygdala” value in the series on NE release was “block”. Moreover, the “adverse side effects compared with clonidine, in particular hypotensive effects” value in [7] is “fewer adverse side effects”. Also, the “affinity for imidazoline-type 1 (I2) receptors” value in series [8] is listed as “high affinity”.
